Data on three compounds can be found in US20040047804A1, “Enhanced radiation therapy” (The General Hospital Corporation, a Massachusetts …, priority 1998, published 2004).

Series [1] has as its system V79 Chinese Hamster Ovary cancer cells. The series can be described thus: In vitro radiation enhancement, survival of irradiated tumor cells. The class given is cell-based. The note with it: radiation dosage of 9.0 Gy. The text has this: The effect of the new radiodense compositions on cancer cells was also studied in vitro. Individual V79 Chinese Hamster Ovary cancer cells were suspended in nutrient medium in test tubes and mixed with a sufficient amount of one of several new radiodense compositions to increase the radiodensity of the cell suspension. […] At a radiation energy level of 12 Gy, about 8×10^-1 cells survived in the nutrient medium alone, while only 1×10^-3 to 1×10^-4 survived in the presence of the radiodense materials.

Series [2] relates to VX2 tumors. The protocol: About […] of either a small molecule radiodense material (iohexol) or a large molecule radiodense material (WIN 8883) was injected directly into separate VX2 tumors growing in the thigh of a rabbit. To measure the diffusion time of the two materials in the tumor interstitium, the rabbit was euthanized and the corpus imaged using CT over the next 24 hours to measure the spatial and temporal distribution of each material.

The test system of series [3] is VX2 tumors. The experiment in a line: In vivo radiation enhancement, systemic radiodense material plus internal radiation probe. Set-up: species or system rabbit. The conditions noted are these: systemic bolus 3 ml/kg. On the procedure: Three rabbits with VX2 tumors growing in the thigh were used to evaluate the radiation therapy effect of the new radiodense compositions and radiation administered internally. In the first rabbit, iohexol was injected systemically as a bolus in a volume of 3 ml/kg, resulting in a peak enhancement of the leaky edge of the tumor by over 50 HU. Radiation of 30 Gy was administered over 45 minutes using a delivery energy of 40 Kev from the probe tip, which was centered in the tumor. The next day, the rabbit was euthanized following the administration of Evans Blue to demarcate the leaky vasculature of the treated tumor as well as an untreated, control tumor in the opposite thigh. […] All of the viable cells were located in the edge of the treated tumor and this edge of viable cells was much smaller than the rim of viable cells in the untreated tumor. Two additional rabbits were treated with a nearly identical protocol, except that the same radiodense material was given as an intravenous bolus plus a sustaining infusion to keep the leaky portions of the tumor enhanced for the entire duration of the radiation treatment. In these two experiments, no evidence of viable tumor was seen on serial computed tomography studies over the next several days. […]

The subject of series [4] is human adenocarcinomas (LS 174T). Set-up: species or system mice. The conditions noted are these: mouse, in vivo. On the procedure: Immunologically tolerant mice were implanted with several different human neoplasms. When the tumors reached a size of 1-2 cm, radiodense compositions were injected intratumorally via a percutaneous route using a 27 gauge needle. The mice and their tumors where then serially imaged with computed tomography to determine the local pharmacokinetics of the injectates by measuring the x-ray attenuation (in HU) of regions of interest.
FIG. 3 is a plot of the temporal change of x-ray attenuation in a mouse bearing a human adenocarcinomas (LS 174T). The radiodense material was a water soluble, small molecule radiodense material (Omnipaque™ with a concentration of 350 mg I/ml as iohexol). A peak contrast of nearly 3000 HU was attained in the center of the tumor, with smaller degrees of contrast enhancement surrounding the injected area. This small molecule was rapidly cleared with values of only 2000 HU at the peak location 60 minutes later.

Read-outs that look alike come from different tables or passages of the source.

For the compound `CC(=O)N(CC(O)CN(C(C)=O)c1c(I)c(C(=O)NCC(O)CO)c(I)c(C(=O)NCC(O)CO)c1I)c1c(I)c(C(=O)NCC(O)CO)c(I)c(C(=O)NCC(O)CO)c1I` (stereo not drawn) [iodix, iodixanol], the “relative effectiveness among the radiodense materials” value in series [1] was “more effective”.

`CCOC(=O)c1c(I)c(NC(C)=O)c(I)c(NC(C)=O)c1I` [Win 8883, ethyl-bis(3,5-acetylamino)-2,4,6-triiodobenzoate]: the “Volume (total number of intratumoral voxels containing at least 200 HU)” value came to 10898 voxels in the series on VX2 tumors [2] (1.5 Hrs), 11826 voxels with VX2 tumors [2] (4.5 Hrs), 11682 voxels with VX2 tumors [2] (21.0 Hrs) and 10420 voxels in the series with VX2 tumors [2] (Initial).

For the compound `CC(=O)N(CC(O)CO)c1c(I)c(C(=O)NCC(O)CO)c(I)c(C(=O)NCC(O)CO)c1I` (stereo not drawn) [iohexol], the “peak enhancement of the leaky edge of the tumor” value with VX2 tumors [3] is given as “over 50 HU”. Also, the “necrosis of viable tumor cells in the treated leg, compared with the control” value in the series with VX2 tumors [3] (30 Gy over 45 minutes at 40 Kev from probe centered in tumor, histology next day) is given as “about 95%”. Moreover, the “x-ray attenuation at the peak location 60 minutes later” value in series [4] is 2000 HU. Further, the “Volume (total number of intratumoral voxels containing at least 200 HU)” value in the series with VX2 tumors [2] (1.5 Hrs) was 23912 voxels; with VX2 tumors [2] (4.5 Hrs), 22104 voxels; in the series with VX2 tumors [2] (21.0 Hrs), 44720 voxels; with VX2 tumors [2] (Initial), 12722 voxels.
